In US20240269170A1, “Treatment of Inflammatory Conditions or Diseases” (Queen Mary University of London, priority 2021, published 2024):

Test system: K/B×N serum induced arthritis in C57BL/6 mice
Assay: Sustained K/B×N serum induced arthritis, transfer of monocytes from arthritic mice incubated with MCTR3
Type: in vivo, mouse
Description: (C-D) K/B×N serum (100 μL, i.p.) was administered to C57BL/6 mice on day 0, 2 and 9 to induce and prolong inflammatory arthritis and, on day 12, mice were treated i.v. with 2×10^6 monocytes isolated from arthritic mice and incubated with either vehicle (PBS+0.1% EtOH) or 1 nM MCTR3 for 90 min at 37° C. Disease course was monitored daily by assessing C) clinical scores and D) oedema. Results are mean±SEM. and expressed as percent change from day of treatment. n=9 per group from two distinct experiments. (E) On day 22 hind paws were harvested joints were fixed, sectioned, stained using H&E stain and leukocyte infiltration evaluated. Top and centre panels present representative images from each experimental group; bottom panel Quantitation of the scores in each of the group. Results are mean±SEM. n=8 mice per group. Statistical differences were evaluated using Mann-Whitney U test. IFP=intrapatellar fat, M=meniscus, TB=Tibia, PF=Pannus formation, arrows denote leukocyte infiltration. (F-G) Paws were harvested 10 days after treatment and lipid mediator profiles were determined using LC-MS/MS-based lipid mediator profiling and evaluated using PLS-DA. (F) scores plot with highlighted regions denoting the clusters representing cells from each group (G) VIP scores for top 15 mediators. Each dot in the score plot represents a separate mouse.
FIG. 4: Regulation of joint reparative pathways in mice receiving MCTR3-trained monocytes. K/B×N serum (100 μL, i.p.) was administered to C57BL/6 mice on day 0, 2 and 9 to induce and prolong inflammatory arthritis and, on day 12, mice were treated i.v. with 2×10^6 monocytes isolated from arthritic mice and incubated with either vehicle (PBS+0.1% EtOH) or 1 nM MCTR3 for 90 min. (A-C) On day 22 hind paws were harvested, fixed, and stained to evaluate A) proteoglycan content using Safranin-O staining; B) Col 2 and C) Col X expression was evaluated using immunofluorescence. Left panels present representative images from each experimental group, right panels provide a quantitative evaluation of the staining. Results are expressed as percent change vs Monocyte group. n=7-8 mice per group. Statistical differences were evaluated using Wilcoxon signed rank test. (D-I) Hind paws were also collected on day 22 to evaluate the expression of the indicated genes was evaluated using quantitative realtime PCR. Results are from n=5 mice per group. Statistical differences were evaluated using Mann Whitney-U test.
FIG. 5: MCTR3 reprograms the arthritic monocyte-derive macrophage transcriptome. A-B) Arthritis was induced and prolonged in C57BL/6 mice by administering 100 μL K/B×N serum i.p. on day 0, 2 and 9. Mice were treated on day 12 i.v. with 2×10^6 monocytes isolated from arthritic mice and incubated either with vehicle (PBS+0.1% DMSO) or 10 μM RG108, a DNMT inhibitor, for 15 min and then with a vehicle (PBS+0.1% EtOH) or 1 nM MCTR3 for 90 min (37° C.). Disease course was monitored daily by assessing A) clinical scores and B) oedema. Results are mean±SEM and expressed as percent change from day of treatment. n=10 mice per group. Statistical differences were evaluated using Two-way ANOVA. (C-E) K/B×N serum (100 μL, i.p.) was administered to mice on days 0, 2 and 9 to induce and prolong inflammatory arthritis. On day 12, mice were treated i.v. with 2×10^6 monocytes isolated from arthritic mice that were previously incubated with either vehicle (PBS+0.1% EtOH) or 1 nM MCTR3 for 90 min. Cells were isolated from paw joints on day 22, sorted for CD45^+ cells and single cell RNA sequencing was performed. […] Results are from n=4 mice per group. (F-G) Monocytes were isolated from human healthy volunteers, these cells were then incubated with GM-CSF (7 days, 37° C.) then with either Vehicle or MCTR3 (1 nM, 37° C.). Cells were lysed and the phosphoproteome determined using mass spectrometry. […]

[1] = 200 μg nor-NOHA i.p. daily for 10 days from day 12
[2] = 200 μg nor-NOHA i.p. daily, mice given MCTR3-reprogrammed monocytes

Q: Which “clinical scores in mice given MCTR3-reprogrammed monocytes” value [1] does the source give for `N=C(NO)NCC[C@H](N)C(=O)O` [nor-NOHA, N^ω-hydroxy-nor-L-arginine] here?
A: increase

Q: What about the “oedema in mice given MCTR3-reprogrammed monocytes” value [1] of the same compound?
A: increase

Q: And the “upregulation of Dbl in PKH67+ CD64+ cells” value [2]?
A: reversed

Q: And the “upregulation of TGF-β1 in PKH67+ CD64+ cells” value [2]?
A: reversed
